Experiment: isobaric coefficient of expansion
Settings: Liquid, DSC with Pressure Shift

CCO [ethanol]
isobaric coefficient of expansion
Settings | 278.15 K | 288.15 K | 298.15 K | 308.15 K | 318.15 K | 328.15 K | 338.15 K | 348.15 K
5000 kPa | 0.00102 1/K | 0.00103 1/K | 0.00106 1/K | 0.00109 1/K | 0.00112 1/K | 0.00116 1/K | 0.00121 1/K | 0.00127 1/K
10000 kPa | 0.000988 1/K | 0.00101 1/K | 0.00103 1/K | 0.00105 1/K | 0.00109 1/K | 0.00112 1/K | 0.00116 1/K | 0.00122 1/K
15000 kPa | 0.000966 1/K | 0.000983 1/K | 0.001 1/K | 0.00102 1/K | 0.00105 1/K | 0.00108 1/K | 0.00112 1/K | 0.00116 1/K
20000 kPa | 0.000948 1/K | 0.000956 1/K | 0.000973 1/K | 0.000994 1/K | 0.00102 1/K | 0.00105 1/K | 0.00108 1/K | 0.00112 1/K
25000 kPa | 0.000928 1/K | 0.000936 1/K | 0.000952 1/K | 0.000971 1/K | 0.000988 1/K | 0.00102 1/K | 0.00105 1/K | 0.00108 1/K
30000 kPa | 0.000908 1/K | 0.000918 1/K | 0.000929 1/K | 0.000944 1/K | 0.000966 1/K | 0.000988 1/K | 0.00102 1/K | 0.00105 1/K
35000 kPa | 0.000892 1/K | 0.000899 1/K | 0.000908 1/K | 0.000921 1/K | 0.000942 1/K | 0.000962 1/K | 0.000988 1/K | 0.00102 1/K
40000 kPa | 0.000882 1/K | 0.000875 1/K | 0.000887 1/K | 0.000903 1/K | 0.000918 1/K | 0.000936 1/K | 0.000958 1/K | 0.000984 1/K
45000 kPa | 0.000863 1/K | 0.000866 1/K | 0.000871 1/K | 0.000883 1/K | 0.000898 1/K | 0.000912 1/K | 0.000935 1/K | 0.000959 1/K
50000 kPa | 0.000852 1/K | 0.00085 1/K | 0.000853 1/K | 0.000865 1/K | 0.000882 1/K | 0.000894 1/K | 0.000911 1/K | 0.000938 1/K
55000 kPa | 0.000839 1/K | 0.000831 1/K | 0.000839 1/K | 0.000848 1/K | 0.000863 1/K | 0.000877 1/K | 0.000891 1/K | 0.000915 1/K

CCCCCCCO [heptan-1-ol]
isobaric coefficient of expansion
Settings | 278.15 K | 288.15 K | 298.15 K | 308.15 K | 318.15 K | 328.15 K | 338.15 K | 348.15 K
5000 kPa | 0.000799 1/K | 0.000815 1/K | 0.000831 1/K | 0.000854 1/K | 0.000878 1/K | 0.000903 1/K | 0.000928 1/K | 0.000956 1/K
10000 kPa | 0.000779 1/K | 0.000798 1/K | 0.000811 1/K | 0.000832 1/K | 0.000854 1/K | 0.000876 1/K | 0.000901 1/K | 0.000927 1/K
15000 kPa | 0.000767 1/K | 0.000784 1/K | 0.000795 1/K | 0.000813 1/K | 0.000833 1/K | 0.000849 1/K | 0.000875 1/K | 0.000899 1/K
20000 kPa | 0.000754 1/K | 0.000769 1/K | 0.000779 1/K | 0.000796 1/K | 0.000814 1/K | 0.000831 1/K | 0.000851 1/K | 0.000872 1/K
25000 kPa | 0.000741 1/K | 0.000757 1/K | 0.000762 1/K | 0.000776 1/K | 0.000792 1/K | 0.000811 1/K | 0.00083 1/K | 0.000848 1/K
30000 kPa | 0.000726 1/K | 0.000743 1/K | 0.000747 1/K | 0.000761 1/K | 0.000775 1/K | 0.000792 1/K | 0.000809 1/K | 0.000826 1/K
35000 kPa | 0.000713 1/K | 0.00073 1/K | 0.000734 1/K | 0.000747 1/K | 0.00076 1/K | 0.000775 1/K | 0.000791 1/K | 0.000806 1/K
40000 kPa | 0.000697 1/K | 0.000716 1/K | 0.000716 1/K | 0.00073 1/K | 0.000742 1/K | 0.000756 1/K | 0.000769 1/K | 0.000786 1/K
45000 kPa | 0.00069 1/K | 0.000708 1/K | 0.000709 1/K | 0.000717 1/K | 0.00073 1/K | 0.00074 1/K | 0.000754 1/K | 0.000768 1/K
50000 kPa | 0.000682 1/K | 0.000694 1/K | 0.000695 1/K | 0.000705 1/K | 0.000714 1/K | 0.000726 1/K | 0.000741 1/K | 0.000752 1/K
55000 kPa | 0.000673 1/K | 0.000686 1/K | 0.000684 1/K | 0.000693 1/K | 0.000703 1/K | 0.000715 1/K | 0.000725 1/K | 0.000737 1/K

CCCCCCO [hexan-1-ol]
isobaric coefficient of expansion
Settings | 278.15 K | 288.15 K | 298.15 K | 308.15 K | 318.15 K | 328.15 K | 338.15 K | 348.15 K
5000 kPa | 0.000821 1/K | 0.000837 1/K | 0.00085 1/K | 0.000875 1/K | 0.000898 1/K | 0.000929 1/K | 0.000958 1/K | 0.000995 1/K
10000 kPa | 0.0008 1/K | 0.000819 1/K | 0.000832 1/K | 0.000853 1/K | 0.000877 1/K | 0.0009 1/K | 0.000929 1/K | 0.00096 1/K
15000 kPa | 0.000788 1/K | 0.000802 1/K | 0.000812 1/K | 0.000834 1/K | 0.000854 1/K | 0.000876 1/K | 0.000903 1/K | 0.000929 1/K
20000 kPa | 0.000778 1/K | 0.000786 1/K | 0.000796 1/K | 0.000815 1/K | 0.000833 1/K | 0.000854 1/K | 0.00088 1/K | 0.000903 1/K
25000 kPa | 0.00076 1/K | 0.000772 1/K | 0.00078 1/K | 0.000796 1/K | 0.000812 1/K | 0.000833 1/K | 0.000854 1/K | 0.000875 1/K
30000 kPa | 0.000748 1/K | 0.000756 1/K | 0.000764 1/K | 0.000779 1/K | 0.000794 1/K | 0.000813 1/K | 0.000832 1/K | 0.000852 1/K
35000 kPa | 0.000733 1/K | 0.000743 1/K | 0.000749 1/K | 0.000763 1/K | 0.000778 1/K | 0.000794 1/K | 0.000813 1/K | 0.000831 1/K
40000 kPa | 0.000723 1/K | 0.000731 1/K | 0.000734 1/K | 0.000747 1/K | 0.000758 1/K | 0.000776 1/K | 0.000791 1/K | 0.000808 1/K
45000 kPa | 0.000716 1/K | 0.00072 1/K | 0.000724 1/K | 0.000733 1/K | 0.000745 1/K | 0.000759 1/K | 0.000776 1/K | 0.000791 1/K
50000 kPa | 0.000708 1/K | 0.000703 1/K | 0.000712 1/K | 0.000721 1/K | 0.000729 1/K | 0.000745 1/K | 0.000758 1/K | 0.000772 1/K
55000 kPa | 0.000699 1/K | 0.000696 1/K | 0.0007 1/K | 0.000709 1/K | 0.000719 1/K | 0.000731 1/K | 0.000744 1/K | 0.000754 1/K

— the NIST ThermoML archive (doi:10.1016/j.jct.2009.07.002)
